Assay results: patent US20100323990A1, “SHIP 1 MODULATOR PRODRUGS” (THE UNIVERSITY OF BRITISH COLUMBIA, priority 2006, published 2010)

System: SHIP+/+ bone marrow derived macrophages
Experiment: LPS-stimulated TNFα production in SHIP+/+ bone marrow derived macrophages
Assay type: cell-based, mice
Details: for suppression of TNFα production: SHIP+/+ cells, 10 ng/mL LPS 2 h
Procedure: Bone marrow cells were aspirated from 4 to 8 week old C57B16×129Sv mixed background mice and SHIP^+/+ and SHIP^−/− mast cells prepared as described previously. Bone marrow derived macrophages from SHIP^+/+ and SHIP^−/− mice were obtained and maintained in IMDM supplemented with 10% FCS, 150 μM MTG, 2% C127 cell conditioned medium as a source of macrophage colony stimulating factor (M-CSF) (macrophage medium)
LPS stimulation of macrophages. For the analysis of LPS-stimulated TNFα production, 2×10^5 cells were plated the night before in 24 well plates in macrophage medium. The next day, the medium was changed and AQX-016A or carrier was added to cells at the indicated concentrations for 30 min prior to the addition of 10 ng/mL LPS. Supernatants were collected for TNFα determination by ELISA (BD Biosciences, Mississauga, ON, Canada). For analysis of intracellular signaling, 2×10^6 cells were plated the night before in 6 cm tissue culture plates. The next day, the cells were cultured in macrophage medium without M-CSF for 1 hr at 37° C. and then pretreated with AQX-016A or carrier for 30 min prior to the addition of 10 ng/mL LPS for 15 min. Cells were washed with 4° C. PBS and resuspended in lysis buffer (50 mM Hepes, 2 mM EDTA, 1 mM NaVO4, 100 mM NaF, 50 mM NaPPi and 1% NP40) supplemented with Complete Protease Inhibitor Cocktail (Roche, Montreal, Canada). Lysates were rocked at 4° C. for 30 min and clarified by centrifuging 20 min at 12000×g. Lysates were then made 1× in Laemmli's buffer, boiled 2 min and loaded onto 7.5% SDS polyacrylamide […]. Immunoblot analysis for phospho PKB (Cell Signalling, Mississauga, Ont), SHIP and actin (Santa Cruz, Santa Cruz, Calif.) were carried out as described previously. Stimulation of mast cells by FcεRI crosslinking. Mast cells were pre-loaded overnight in BMMC medium lacking IL-3 with 0.1 μg/ml anti-DNP IgE (SPE-7, Sigma, Oakville, Ont). For calcium flux measurements, cells were incubated with 2 μM fura 2-acetoxymethyl ester (Molecular Probes, Eugene, Oreg.) in Tyrode's buffer at 23° C. for 45 min. Cells were then washed and incubated in the presence of vehicle control, LY294002 or AQX-016A 30 min prior to stimulation with the indicated concentration of DNP-human serum albumin (DNP-HSA). Calcium influx was monitored by spectrofluorometry. For analysis of intracellular signaling, cells were pre-loaded with anti-DNP IgE as above, pre-treated with AQX-016A or buffer control for 30 min at 37° C. and stimulated with 20 ng/ml DNP-HSA for 5 min. Total cell lysates were then prepared and analyzed for phospho-PKB, phospho-p38^MAPK, phospho-MAPK, Grb-2 (Cell Signalling, Mississauga, Ont) and SHIP^6 by immunoblot analysis.
The target specificity and biological efficacy of AQX-016A were assessed by comparing AQX-016A's effects on PI3K-regulated processes in primary SHIP^+/+ vs SHIP^−/− macrophages and mast cells. […] LPS stimulation of macrophages is associated with a PIP3-dependent release of pro-inflammatory mediators such as TNFα. The action of AQX-016A on SHIP^+/+ vs SHIP^−/− bone marrow derived macrophages was examined. Cells were pretreated for 30 min with AQX-016A prior to stimulation with 10 ng/mL of LPS for 2 h. AQX-016A was able to suppress TNFα production in SHIP^+/+ cells by 30% at 3 μM and 50% at 15 μM (FIG. 8A). […] Activation of mast cells via IgE+ antigen crosslinking of their IgE receptors results in elevation of intracellular calcium levels.

EC50 (Mus musculus, Macrophage, SHIP+/+ macrophages, LPS stimulated, read-out: EC50 for inhibition of TNFα production) [nM] | SMILES | TNFα production, SHIP+/+ vs SHIP−/− macrophages (LPS stimulated) | suppression of TNFα production (3 μM) [%] | suppression of TNFα production (15 μM) [%]
300 to 600 | Cc1cc(O)cc2c1[C@]1(C)CCC3C(C)(C)CCC[C@]3(C)[C@H]1C2 (stereo partly shown) [Compound 100] | selectively inhibited |  | 
 | Cc1cc(O)c(O)c2c1[C@]1(C)CCC3C(C)(C)CCC[C@]3(C)[C@H]1C2 (stereo partly shown) [AQX-016A] |  | 30 | 50
